Measurements from US11897862B2 (Gilead Sciences, Inc., priority 2022, dated 2024).

What was measured:
IKZF2 = IKZF2 (Homo sapiens, UniProt Q96SW2+Q9UKS7); test: HEK293 HiBiT in vitro degradation of IKZF2; format: cell-based; parameters: expressed in transfected cells; conditions: for Dmax: HEK293, HEK293 HiBiT, maximum degradation at the highest concentration tested; for DC50: HEK293 HiBiT, 18-24 hr incubation, normalized to DMSO control, read-out: IKZF2 EC50
Procedure, shortened: (§1)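 Stable HEK293 reporter pools, each with one integrated tet-inducible copy of a HiBiT-tagged target, were induced with doxycycline overnight at 37 °C. After 18-24 h with compound dilution series, Nano-Glo lysis and luminescence yielded EC50 and Dmax values.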

IKZF1 = target: T1, IKZF1 (Homo sapiens, UniProt Q13422+Q96SW2); test: HEK293 HiBiT in vitro degradation of IKZF1; format: cell-based; conditions: for DC50: HEK293 HiBiT, 18-24 hr incubation, normalized to DMSO control, read-out: IKZF1 EC50; for Dmax: HEK293, HEK293 HiBiT, maximum degradation at the highest concentration tested
T1 construct: expressed in transfected cells
Procedure, shortened: as §1

Chain of IKZF2 (Q9UKS7 1-500 isoform Q9UKS7-2): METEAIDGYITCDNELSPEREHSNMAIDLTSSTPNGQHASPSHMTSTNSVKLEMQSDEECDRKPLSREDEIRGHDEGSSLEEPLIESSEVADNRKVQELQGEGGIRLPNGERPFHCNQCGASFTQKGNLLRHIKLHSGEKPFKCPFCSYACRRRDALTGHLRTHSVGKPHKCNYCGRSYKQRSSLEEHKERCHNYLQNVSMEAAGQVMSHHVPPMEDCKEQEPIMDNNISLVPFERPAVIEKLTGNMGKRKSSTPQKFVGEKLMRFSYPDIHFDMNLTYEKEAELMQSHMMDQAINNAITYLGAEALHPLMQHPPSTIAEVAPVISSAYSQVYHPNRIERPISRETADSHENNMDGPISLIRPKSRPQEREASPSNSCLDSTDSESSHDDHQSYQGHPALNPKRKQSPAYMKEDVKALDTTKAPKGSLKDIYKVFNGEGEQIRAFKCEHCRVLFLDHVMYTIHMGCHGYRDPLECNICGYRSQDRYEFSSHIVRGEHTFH
Chain of IKZF2 (Q96SW2 whole entry): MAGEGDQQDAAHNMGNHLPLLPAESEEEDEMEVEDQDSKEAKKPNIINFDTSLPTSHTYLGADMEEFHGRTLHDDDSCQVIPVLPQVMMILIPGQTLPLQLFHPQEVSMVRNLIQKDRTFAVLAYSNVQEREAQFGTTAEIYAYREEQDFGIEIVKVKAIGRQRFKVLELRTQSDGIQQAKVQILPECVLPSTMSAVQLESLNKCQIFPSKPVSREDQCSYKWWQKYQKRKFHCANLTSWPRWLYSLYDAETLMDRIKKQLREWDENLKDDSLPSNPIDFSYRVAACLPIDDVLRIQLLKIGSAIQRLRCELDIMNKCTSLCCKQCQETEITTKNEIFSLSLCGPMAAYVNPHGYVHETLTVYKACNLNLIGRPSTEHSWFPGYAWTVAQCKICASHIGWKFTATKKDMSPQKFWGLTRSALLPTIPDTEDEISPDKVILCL
Chain of IKZF2 (Q16531 whole entry partner): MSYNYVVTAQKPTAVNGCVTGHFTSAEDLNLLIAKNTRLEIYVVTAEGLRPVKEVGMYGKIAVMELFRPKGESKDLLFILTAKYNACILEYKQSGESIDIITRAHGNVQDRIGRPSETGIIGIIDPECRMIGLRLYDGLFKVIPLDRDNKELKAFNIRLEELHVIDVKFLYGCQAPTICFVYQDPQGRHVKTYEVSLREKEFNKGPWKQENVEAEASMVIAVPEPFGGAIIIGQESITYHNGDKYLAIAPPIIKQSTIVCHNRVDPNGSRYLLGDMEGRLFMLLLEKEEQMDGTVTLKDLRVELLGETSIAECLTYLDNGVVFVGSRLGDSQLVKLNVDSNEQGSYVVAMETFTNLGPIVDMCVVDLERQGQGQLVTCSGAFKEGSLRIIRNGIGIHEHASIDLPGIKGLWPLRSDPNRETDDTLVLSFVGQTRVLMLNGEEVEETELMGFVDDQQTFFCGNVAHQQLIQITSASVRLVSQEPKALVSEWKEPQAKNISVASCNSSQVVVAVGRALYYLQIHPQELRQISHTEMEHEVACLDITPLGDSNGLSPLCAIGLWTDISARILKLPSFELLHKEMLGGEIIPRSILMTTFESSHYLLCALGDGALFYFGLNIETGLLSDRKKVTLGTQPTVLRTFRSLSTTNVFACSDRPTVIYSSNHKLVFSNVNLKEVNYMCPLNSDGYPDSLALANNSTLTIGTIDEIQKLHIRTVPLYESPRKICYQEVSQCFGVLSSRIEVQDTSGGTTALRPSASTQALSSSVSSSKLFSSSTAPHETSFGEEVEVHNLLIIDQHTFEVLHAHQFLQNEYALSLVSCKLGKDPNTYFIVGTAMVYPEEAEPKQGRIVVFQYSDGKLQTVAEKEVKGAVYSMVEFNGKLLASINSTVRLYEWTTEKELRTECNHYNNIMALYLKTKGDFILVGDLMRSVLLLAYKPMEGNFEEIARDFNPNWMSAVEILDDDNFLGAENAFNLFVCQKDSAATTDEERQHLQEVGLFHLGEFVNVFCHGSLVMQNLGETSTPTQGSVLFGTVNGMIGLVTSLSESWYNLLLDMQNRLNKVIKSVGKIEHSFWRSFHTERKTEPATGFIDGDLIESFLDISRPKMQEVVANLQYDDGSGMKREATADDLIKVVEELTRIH
T1 sequence (Q13422 whole entry): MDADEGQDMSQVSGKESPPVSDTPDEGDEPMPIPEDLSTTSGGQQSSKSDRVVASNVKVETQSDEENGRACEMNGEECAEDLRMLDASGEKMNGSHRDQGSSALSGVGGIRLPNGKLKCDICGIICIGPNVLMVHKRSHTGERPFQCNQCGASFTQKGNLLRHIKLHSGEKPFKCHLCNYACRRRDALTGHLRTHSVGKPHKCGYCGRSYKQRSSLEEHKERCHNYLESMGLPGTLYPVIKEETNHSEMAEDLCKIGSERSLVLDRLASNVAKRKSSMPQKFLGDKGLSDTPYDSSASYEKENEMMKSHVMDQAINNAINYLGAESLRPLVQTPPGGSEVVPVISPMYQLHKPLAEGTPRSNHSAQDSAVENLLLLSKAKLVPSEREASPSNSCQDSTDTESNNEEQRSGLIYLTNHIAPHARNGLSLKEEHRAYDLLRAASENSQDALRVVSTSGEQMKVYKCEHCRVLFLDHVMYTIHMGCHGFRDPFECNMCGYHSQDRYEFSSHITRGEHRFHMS
T1 sequence (Q96SW2 whole entry): as the sequence (Q96SW2 whole entry) above
T1 sequence (Q16531 whole entry partner): as the sequence (Q16531 whole entry partner) above

| SMILES | Dmax (IKZF2) [%] | DC50 (IKZF2) [nM] | DC50 (IKZF1) [nM] | Dmax (IKZF1) [%] |
| --- | --- | --- | --- | --- |
| CCOC1CN([C@H]2CCCC[C@@H]2Cc2ccc3c(c2)CN(C2CCC(=O)NC2=O)C3=O)C1 (stereo partly drawn) [Example 31, 3-(5-(((1R,2S)-2-(3-ethoxyazetidin-1-yl)cyclohexyl)methyl)-1-oxoisoindolin-2-yl)piperidine-2,6-dione] | 85 | 30 | > 1000 | – |
| O=C1CCC(N2Cc3cc(C[C@H]4CCCC[C@@H]4N4CC(Oc5ccccc5)C4)ccc3C2=O)C(=O)N1 (stereo partly drawn) [Example 32, 3-(1-oxo-5-(((1R,2S)-2-(3-phenoxyazetidin-1-yl)cyclohexyl)methyl)isoindolin-2-yl)piperidine-2,6-dione] | 90 | 21 | > 1000 | – |
| O=C1CCC(N2Cc3cc(C[C@H]4CCCC[C@@H]4N4CC(OCc5ccccc5)C4)ccc3C2=O)C(=O)N1 (stereo partly drawn) [Example 33, 3-(5-(((1R,2S)-2-(3-(benzyloxy)azetidin-1-yl)cyclohexyl)methyl)-1-oxoisoindolin-2-yl)piperidine-2,6-dione] | 82 | 18 | > 1000 | – |
| O=C1CCC(N2Cc3cc(C[C@H]4CCCC[C@@H]4N4CC5(CN(Cc6ccccc6Cl)C5)C4)ccc3C2=O)C(=O)N1 (stereo partly drawn) [Example 34, 3-(5-(((1R,2S)-2-(6-(2-chlorobenzyl)-2,6-diazaspiro[3.3]heptan-2-yl)cyclohexyl)methyl)-1-oxoisoindolin-2-yl)piperidine-2,6-dione] | 80 | 28 | 51 | 29 |
| O=C1CCC(N2Cc3cc(C[C@H]4CCCC[C@@H]4NCc4cscn4)ccc3C2=O)C(=O)N1 (stereo partly drawn) [Example 36, 3-(1-oxo-5-(((1R,2S)-2-((thiazol-4-ylmethyl)amino)cyclohexyl)methyl)isoindolin-2-yl)piperidine-2,6-dione] | 89 | 46 | 101 | 33 |
| O=C1CCC(N2Cc3cc(C[C@H]4CCCC[C@@H]4NCc4nccs4)ccc3C2=O)C(=O)N1 (stereo partly drawn) [Example 37, 3-(1-oxo-5-(((1R,2S)-2-((thiazol-2-ylmethyl)amino)cyclohexyl)methyl)isoindolin-2-yl)piperidine-2,6-dione] | 69 | 172 | > 1000 | – |
| Cn1ccc(CN[C@H]2CCCC[C@@H]2Cc2ccc3c(c2)CN(C2CCC(=O)NC2=O)C3=O)n1 (stereo partly drawn) [Example 38, 3-(5-(((1R,2S)-2-(((1-methyl-1H-pyrazol-3-yl)methyl)amino)cyclohexyl)methyl)-1-oxoisoindolin-2-yl)piperidine-2,6-dione] | 97 | 192 | > 1000 | – |
| Cn1nccc1CN[C@H]1CCCC[C@@H]1Cc1ccc2c(c1)CN(C1CCC(=O)NC1=O)C2=O (stereo partly drawn) [Example 39, 3-(5-(((1R,2S)-2-(((1-methyl-1H-pyrazol-5-yl)methyl)amino)cyclohexyl)methyl)-1-oxoisoindolin-2-yl)piperidine-2,6-dione] | 86 | 47 | 265 | 34 |
| O=C1CCC(N2Cc3cc(C[C@H]4CCCC[C@@H]4NCc4ccncc4)ccc3C2=O)C(=O)N1 (stereo partly drawn) [Example 40, 3-(1-oxo-5-(((1R,2S)-2-((pyridin-4-ylmethyl)amino)cyclohexyl)methyl)isoindolin-2-yl)piperidine-2,6-dione] | 81 | 45 | > 1000 | – |
| O=C1CCC(N2Cc3cc(C[C@H]4CCCC[C@@H]4NCc4cccnc4)ccc3C2=O)C(=O)N1 (stereo partly drawn) [Example 41, 3-(1-oxo-5-(((1R,2S)-2-((pyridin-3-ylmethyl)amino)cyclohexyl)methyl)isoindolin-2-yl)piperidine-2,6-dione] | 90 | 24 | 216 | 44 |
| Cn1cc(CN[C@H]2CCCC[C@@H]2Cc2ccc3c(c2)CN(C2CCC(=O)NC2=O)C3=O)cn1 (stereo partly drawn) [Example 42, 3-(5-(((1R,2S)-2-(((1-methyl-1H-pyrazol-4-yl)methyl)amino)cyclohexyl)methyl)-1-oxoisoindolin-2-yl)piperidine-2,6-dione] | 78 | 126 | > 1000 | – |
| O=C1CCC(N2Cc3cc(C[C@H]4CCCC[C@@H]4NCc4c(F)cncc4F)ccc3C2=O)C(=O)N1 (stereo partly drawn) [Example 43, 3-(5-(((1R,2S)-2-(((3,5-difluoropyridin-4-yl)methyl)amino)cyclohexyl)methyl)-1-oxoisoindolin-2-yl)piperidine-2,6-dione] | 45 | 91 | > 1000 | – |
| O=C1CCC(N2Cc3cc(C[C@H]4CCCC[C@@H]4NCc4ncc(F)cc4F)ccc3C2=O)C(=O)N1 (stereo partly drawn) [Example 44, 3-(5-(((1R,2S)-2-(((3,5-difluoropyridin-2-yl)methyl)amino)cyclohexyl)methyl)-1-oxoisoindolin-2-yl)piperidine-2,6-dione] | 60 | 67 | > 1000 | – |
| O=C1CCC(N2Cc3cc(C[C@H]4CCCC[C@@H]4NCc4ccccn4)ccc3C2=O)C(=O)N1 (stereo partly drawn) [Example 45, 3-(1-oxo-5-(((1R,2S)-2-((pyridin-2-ylmethyl)amino)cyclohexyl)methyl)isoindolin-2-yl)piperidine-2,6-dione] | 71 | 131 | > 1000 | – |
| O=C1CCC(N2Cc3cc(C[C@H]4CCCC[C@@H]4NC4CC4)ccc3C2=O)C(=O)N1 (stereo partly drawn) [Example 47, 3-(5-(((1R,2S)-2-(cyclopropylamino)cyclohexyl)methyl)-1-oxoisoindolin-2-yl)piperidine-2,6-dione] | 93 | 6 | > 1000 | – |
| O=C1CCC(N2Cc3cc(C[C@H]4CCCC[C@@H]4NC4CCC4)ccc3C2=O)C(=O)N1 (stereo partly drawn) [Example 48, 3-(5-(((1R,2S)-2-(cyclobutylamino)cyclohexyl)methyl)-1-oxoisoindolin-2-yl)piperidine-2,6-dione] | 96 | 24 | > 1000 | – |
| O=C1CCC(N2Cc3cc(C[C@H]4CCCC[C@@H]4NCc4ccc(F)cn4)ccc3C2=O)C(=O)N1 (stereo partly drawn) [Example 49, 3-(5-(((1R,2S)-2-(((5-fluoropyridin-2-yl)methyl)amino)cyclohexyl)methyl)-1-oxoisoindolin-2-yl)piperidine-2,6-dione] | 66 | 88 | > 1000 | – |
| O=C1CCC(N2Cc3cc(C[C@H]4CCCC[C@@H]4NCc4ncccc4F)ccc3C2=O)C(=O)N1 (stereo partly drawn) [Example 50, 3-(5-(((1R,2S)-2-(((3-fluoropyridin-2-yl)methyl)amino)cyclohexyl)methyl)-1-oxoisoindolin-2-yl)piperidine-2,6-dione] | 57 | 111 | > 1000 | – |
| O=C1CCC(N2Cc3cc(C[C@H]4CCCC[C@@H]4NCc4cncc(F)c4)ccc3C2=O)C(=O)N1 (stereo partly drawn) [Example 51, 3-(5-(((1R,2S)-2-(((5-fluoropyridin-3-yl)methyl)amino)cyclohexyl)methyl)-1-oxoisoindolin-2-yl)piperidine-2,6-dione] | 80 | 45 | > 1000 | – |
| CC(C)N[C@H]1CC=CC[C@@H]1Cc1ccc2c(c1)CN(C1CCC(=O)NC1=O)C2=O (stereo partly drawn) [Example 54, 3-(5-(((1R,6S)-6-(isopropylamino)cyclohex-3-en-1-yl)methyl)-1-oxoisoindolin-2-yl)piperidine-2,6-dione] | 86 | 31 | > 1000 | – |
| O=C1CCC(N2Cc3cc(C[C@H]4CCCC[C@@H]4N4CC(c5ccccc5)C4)ccc3C2=O)C(=O)N1 (stereo partly drawn) [Example 55, 3-(1-oxo-5-(((1R,2S)-2-(3-phenylazetidin-1-yl)cyclohexyl)methyl)isoindolin-2-yl)piperidine-2,6-dione] | 87 | 25 | > 1000 | – |
| CC(C)(C)CN[C@H]1CCCC[C@@H]1Cc1ccc2c(c1)CN(C1CCC(=O)NC1=O)C2=O (stereo partly drawn) [Example 57, 3-(5-(((1R,2S)-2-(neopentylamino)cyclohexyl)methyl)-1-oxoisoindolin-2-yl)piperidine-2,6-dione] | 89 | 25 | > 1000 | – |
| O=C1CCC(N2Cc3cc(C[C@H]4CCCC[C@@H]4NCc4cccnc4C(F)(F)F)ccc3C2=O)C(=O)N1 (stereo partly drawn) [Example 58, 3-(1-oxo-5-(((1R,2S)-2-(((2-(trifluoromethyl)pyridin-3-yl)methyl)amino)cyclohexyl)methyl)isoindolin-2-yl)piperidine-2,6-dione] | 75 | 46 | 206 | 34 |
| O=C1CCC(N2Cc3cc(C[C@H]4CCCC[C@@H]4NCc4cnccn4)ccc3C2=O)C(=O)N1 (stereo partly drawn) [Example 59, 3-(1-oxo-5-(((1R,2S)-2-((pyrazin-2-ylmethyl)amino)cyclohexyl)methyl)isoindolin-2-yl)piperidine-2,6-dione] | 77 | 75 | > 1000 | – |
| O=C1CCC(N2Cc3cc(C[C@H]4CCCC[C@@H]4NCC4OCCO4)ccc3C2=O)C(=O)N1 (stereo partly drawn) [Example 60, 3-(5-(((1R,2S)-2-(((1,3-dioxolan-2-yl)methyl)amino)cyclohexyl)methyl)-1-oxoisoindolin-2-yl)piperidine-2,6-dione] | 63 | 65 | > 1000 | – |
| C[C@@H](N[C@H]1CCCC[C@@H]1Cc1ccc2c(c1)CN(C1CCC(=O)NC1=O)C2=O)c1ccccc1 (stereo partly drawn) [Example 61, 3-(1-oxo-5-(((1R,2S)-2-(((R)-1-phenylethyl)amino)cyclohexyl)methyl)isoindolin-2-yl)piperidine-2,6-dione] | 95 | 23 | > 1000 | – |
| O=C1CCC(N2Cc3cc(C[C@H]4CCCC[C@@H]4NCc4cccnc4F)ccc3C2=O)C(=O)N1 (some centres unmarked) [Example 62] | 79 | 56 | > 1000 | – |
| O=C1CCC(N2Cc3cc(C[C@H]4CCCC[C@@H]4NCCOc4ccccc4Cl)ccc3C2=O)C(=O)N1 (some centres unmarked) [Example 65] | 64 | 48 | > 1000 | – |
